From PMC8072890, “Aminoalkylamides of Eremomycin Exhibit an Improved Antibacterial Activity” (Pharmaceuticals, 2021)

How the values were obtained:
E. faecalis 559 = assay type: cell-based; conditions: sensitive strain; broth dilution micromethod, CLSI; modal values (or range) of 3–5 independent tests
Description: (§1) The antimicrobial activity of semisynthetic derivatives of eremomycin 4a–q was studied in comparison with vancomycin on a wide panel of Gram-positive bacteria sensitive (Staphylococcus aureus ATCC 29213, S. aureus R-2, S. haemoliticus 602, S. pneumoniae ATCC 6305, Enteroccus faecium 4, and E. faecalis 559) and resistant to vancomycin (S. aureus 3797, S.aureus 3798, E. faecium 2, E. faecium 3576, E. faecalis 9, E. faecalis 583, and E. gallinarum BΠ 4147), information about the strains given in Table S3. The minimum microbial inhibitory concentration (MIC) for the test compounds was determined by the broth dilution micromethod according to CLSI guidelines, and vancomycin and a standard strain S. aureus ATCC 29213 used as controls (Figure 2 and Tables S4 and S5).
(§2) Table S4. Antibacterial activity of vancomycin and derivatives 4a–q against sensitive Gram-positive bacteria.
(§3) Strain/MIC (Minimum inhibitory concentration, μg/ml)*
(§4) Compound m n R S.aureus АТСС S.aureus R-2 S.haemoliticus S.pneumoniae АТСС E. faecium 4 E. faecalis 559
(§5) *MICs are presented as modal values for 3–5 independently replicated MIC tests for each strain and for the antibiotics. In the range of the
(§6) obtained MIC values, the obtained modal values are highlighted in bold.

S. haemoliticus 602 = assay type: cell-based; conditions: sensitive strain; broth dilution micromethod, CLSI; modal values (or range) of 3–5 independent tests
Description: as §1, §2, §3, §4, §5, §6

S. aureus R-2 = assay type: cell-based; conditions: sensitive strain; broth dilution micromethod, CLSI; modal values (or range) of 3–5 independent tests
Description: as §1, §2, §3, §4, §5, §6

E. faecium 4 = assay type: cell-based; conditions: sensitive strain; broth dilution micromethod, CLSI; modal values (or range) of 3–5 independent tests
Description: as §1, §2, §3, §4, §5, §6

[1] = tested on: Staphylococcus aureus ATCC 29213; assay type: cell-based; conditions: vancomycin-sensitive control strain; broth dilution micromethod, CLSI; modal values (or range) of 3–5 independent tests
Description: as §1, §2, §3, §4, §5, §6

E. gallinarum BΠ 4147 = assay type: cell-based; conditions: strain resistant to vancomycin; broth dilution micromethod, CLSI; modal values (or range) of 3–5 independent tests
Description: as §1
(§7) Table S5. Antibacterial activity of vancomycin and derivatives 4a–q against resistant Gram-positive bacteria.
(§8) Strain/MIC (minimum inhibitory concentration; μg/ml)
(§9) Compound m n R S.aureus 3797 S.aureus 3798 E. faecium 2 E. faecium 3576 E. faecalis 9 E. faecalis 583 E. gallinarum
(§10) *MICs are presented as modal values for 3–5 independently replicate MIC tests for each strain and for the antibiotics. In the range of the obtained MIC
(§11) values, the obtained modal values are highlighted in bold.

E. faecium 2 = assay type: cell-based; conditions: strain resistant to vancomycin; broth dilution micromethod, CLSI; modal values (or range) of 3–5 independent tests
Description: as §1, §7, §8, §9, §10, §11

S. aureus 3797 = assay type: cell-based; conditions: strain resistant to vancomycin; broth dilution micromethod, CLSI; modal values (or range) of 3–5 independent tests
Description: as §1, §7, §8, §9, §10, §11

E. faecalis 583 = assay type: cell-based; conditions: strain resistant to vancomycin; broth dilution micromethod, CLSI; modal values (or range) of 3–5 independent tests
Description: as §1, §7, §8, §9, §10, §11

E. faecalis 9 = assay type: cell-based; conditions: strain resistant to vancomycin; broth dilution micromethod, CLSI; modal values (or range) of 3–5 independent tests
Description: as §1, §7, §8, §9, §10, §11

S.aureus 3798 = assay type: cell-based; conditions: strain resistant to vancomycin; broth dilution micromethod, CLSI; modal values (or range) of 3–5 independent tests
Description: as §1, §7, §8, §9, §10, §11

E. faecium 3576 = assay type: cell-based; conditions: strain resistant to vancomycin; broth dilution micromethod, CLSI; modal values (or range) of 3–5 independent tests
Description: as §1, §7, §8, §9, §10, §11

S. pneumoniae ATCC 6305 = test: MIC, broth dilution micromethod (CLSI); assay type: cell-based; conditions: sensitive strain, modal values (or range) of 3–5 independent tests
Description: as §1, §2, §3, §4, §5, §6

[2] = tested on: S. aureus (strain 10, clinical isolate); test: Mouse staphylococcal sepsis model, single IV administration; assay type: in vivo, mice (SHK colony); conditions: for Survival: single IV, 30 min after infection, n = 10
Description: A comparative study of the efficacy of eremomycin N-(2-((2-fluorobenzyl)amino)ethyl)amide (4e) and vancomycin was carried out in a mice staphylococcal sepsis model. Healthy female mice of the SHK colony weighing 20–22 g after two-week quarantine were randomized into groups (n = 10) and received S. aureus as the infectious agent (strain 10, clinical isolate, adapted for growth in vivo by five-fold passaging in mice). In the experiment, female mice of the SHK colony weighing 20–22 g were used. S. aureus (strain 10, clinical isolate), adapted for growth in vivo by five-fold passaging in mice, was used as the infectious agent. Initially, the lethal dose (LD100) of staphylococcus was determined for this mouse line using the intravenous infection route. The mice deaths were counted daily for 10 days. Thus, the lethal dose (LD100) was defined as 8 × 10^8 CFU/mouse. Afterwards, the mice were seated in cages of 10 heads and were infected intravenously with S. aureus at a lethal dose, and the efficacy of the tested drugs was determined by the ED50 value (i.e., the dose at which 50% of the experimental animals survive). Then, 30 min after infection, the mice were injected intravenously with eremomycin N-(2-((2-fluorobenzyl)amino)ethyl)amide (4e) at single doses from 0.1 to 2.5 mg/kg. or vancomycin at doses from 2.5 to 7.5 mg/kg. As a control dose, a group of untreated animals infected with a lethal dose of S. aureus was present in the experiment. The determination of ED50 of the tested compounds was carried out in one experiment under a single control using the Behrens method.

Substance | MIC E. faecalis 559 (E. faecalis 559) [µg/mL] | MIC S.haemoliticus 602 (S. haemoliticus 602) [µg/mL] | MIC S.aureus R-2 (S. aureus R-2) [µg/mL] | MIC E. faecium 4 (E. faecium 4) [µg/mL] | MIC S.aureus ATCC 29213 [1] [µg/mL] | MIC E. gallinarum ВП 4147 (E. gallinarum BΠ 4147) [µg/mL] | MIC E. faecium 2 (E. faecium 2) [µg/mL] | MIC S.aureus 3797 (S. aureus 3797) [µg/mL] | MIC E. faecalis 583 (E. faecalis 583) [µg/mL] | MIC E. faecalis 9 (E. faecalis 9) [µg/mL] | MIC S.aureus 3798 (S.aureus 3798) [µg/mL] | MIC E. faecium 3576 (E. faecium 3576) [µg/mL] | MIC S.pneumoniae ATCC 6305 (S. pneumoniae ATCC 6305) [µg/mL] | Survival ([2]; dose 0.5 mg/kg) [%] | Survival ([2]; dose 1.5 mg/kg) [%] | Survival ([2]; dose 2.5 mg/kg) [%] | Survival ([2]; dose 3.5 mg/kg) [%] | Survival ([2]; dose 4.5 mg/kg) [%] | Survival ([2]; dose 5.5 mg/kg) [%] | ED50 ([2]; mice infected IV with lethal dose of S. aureus (8 × 10^8 CFU/mouse), single IV dose 30 min after infection, n = 10 per group, observed 14 days, Behrens method) [mg/kg]
Eremomycin N-(2-((4-methoxybenzyl)amino)ethyl)amide [4d] | 0.5 | 0.25 | 0.06 | 0.25 | 0.03 | 1 | 0.5 | 0.5 | 0.5 | 0.03 | 0.5 to 1 | 0.5 to 1 | 0.01 |  |  |  |  |  |  | 
Eremomycin N-(2-((4-methylbenzyl)amino)ethyl)amide [4c] | 0.25 | 0.25 | 0.25 | 0.25 | 0.25 | 0.5 | 1 | 0.5 | 1 to 2 | 0.03 | 1 | 1 | 0.01 |  |  |  |  |  |  | 
Eremomycin N-(2-((2-fluorobenzyl)amino)propyl)amide [4f] | 0.25 to 0.5 | 0.25 to 0.5 | 0.03 | 0.25 | 0.125 | 0.5 | 1 | 0.5 | 1 | 0.06 | 2 | 1 | 0.03 |  |  |  |  |  |  | 
Eremomycin N-(2-((3-fluorobenzyl)amino)ethyl)amide [4g] | 0.25 to 0.5 | 0.5 | 0.06 | 0.25 | 0.03 | 1 | 0.5 | 1 | 0.5 to 1 | 0.03 | 2 | 1 | 0.01 |  |  |  |  |  |  | 
Eremomycin |  |  |  |  |  |  |  |  |  |  |  |  |  | 20 | 40 | 80 | 80 | 100 | 100 | 1.8

More lines, main results first:

MIC E. faecalis 559 (E. faecalis 559) [µg/mL] | MIC S.haemoliticus 602 (S. haemoliticus 602) [µg/mL] | MIC S.aureus R-2 (S. aureus R-2) [µg/mL] | MIC E. faecium 4 (E. faecium 4) [µg/mL] | MIC S.aureus ATCC 29213 [1] [µg/mL] | MIC E. gallinarum ВП 4147 (E. gallinarum BΠ 4147) [µg/mL] | MIC E. faecium 2 (E. faecium 2) [µg/mL] | MIC S.aureus 3797 (S. aureus 3797) [µg/mL] | MIC E. faecalis 583 (E. faecalis 583) [µg/mL] | MIC E. faecalis 9 (E. faecalis 9) [µg/mL] | MIC S.aureus 3798 (S.aureus 3798) [µg/mL] | MIC E. faecium 3576 (E. faecium 3576) [µg/mL] | MIC S.pneumoniae ATCC 6305 (S. pneumoniae ATCC 6305) [µg/mL] | Substance | Survival ([2]; dose 0.5 mg/kg) [%] | Survival ([2]; dose 1.5 mg/kg) [%] | Survival ([2]; dose 2.5 mg/kg) [%] | Survival ([2]; dose 3.5 mg/kg) [%] | Survival ([2]; dose 4.5 mg/kg) [%] | Survival ([2]; dose 5.5 mg/kg) [%] | ED50 ([2]; mice infected IV with lethal dose of S. aureus (8 × 10^8 CFU/mouse), single IV dose 30 min after infection, n = 10 per group, observed 14 days, Behrens method) [mg/kg]
0.5 | 0.25 | 0.25 | 0.25 | 0.125 to 0.25 | 0.5 | 0.5 | 0.25 to 0.5 | 0.5 to 1 | 0.06 | 1 | 1 | 00.03 | Eremomycin N-(2-((4-chlorobenzyl)amino)ethyl)amide [4i] |  |  |  |  |  |  | 
2 | 0.5 | 2 | 1 | 1 | 4 | 1 to 2 | 2 | 4 | 0.25 | 2 | 4 | 0.01 | Eremomycin N-(2-((4-trifluoromethylbenzyl)amino)ethyl)amide [4q] |  |  |  |  |  |  | 
0.125 | 0.25 | 0.06 | 0.25 | 0.25 | 0.5 to 1 | 0.5 | 0.25 | 0.5 to 1 | 0.03 | 0.5 | 2 | 0.01 | Eremomycin N-(2-((4-fluorobenzyl)amino)ethyl)amide [4h] |  |  |  |  |  |  | 
2 | 0.5 | 1 | 1 | 1 | 2 | 2 | 2 | 2 | 0.25 to 0.5 | 1 to 2 | 2 | 0.5 | Eremomycin N-(2-((3,4-dichlorobenzyl)amino)ethyl)amide [4o] |  |  |  |  |  |  | 
0.25 | 0.125 | 0.06 | 0.25 to 0.5 | 0.03 to 0.06 | 1 | 0.5 to 1 | 0.5 | 0.5 | 0.03 | 1 | 1 | 0.03 | Eremomycin N-(2-((2,6-difluorobenzyl)amino)ethyl)amide [4j] |  |  |  |  |  |  | 
1 | 0.125 | 0.25 | 0.25 | 0.125 | 1 | 1 | 2 | 1 | 0.25 | 1 | 2 | 0.03 to 0.06 | Eremomycin N-(2-((2-chloro-4-fluorobenzyl)amino)ethyl)amide [4l] |  |  |  |  |  |  | 
